ChEMBL document CHEMBL5465560, “Selectivity Literature for EUbOPEN Chemogenomic Library” (2024)

Experiments:
[1] = molecular target: T1, Serine/threonine-protein kinase DCLK2 (Homo sapiens) (UniProt Q8N568); experiment: Selectivity interaction (Upstate Kinase Profiler service (Millipore)) EUB0000056c DCLK2; conditions: at 1 µM
T1 sequence (whole entry): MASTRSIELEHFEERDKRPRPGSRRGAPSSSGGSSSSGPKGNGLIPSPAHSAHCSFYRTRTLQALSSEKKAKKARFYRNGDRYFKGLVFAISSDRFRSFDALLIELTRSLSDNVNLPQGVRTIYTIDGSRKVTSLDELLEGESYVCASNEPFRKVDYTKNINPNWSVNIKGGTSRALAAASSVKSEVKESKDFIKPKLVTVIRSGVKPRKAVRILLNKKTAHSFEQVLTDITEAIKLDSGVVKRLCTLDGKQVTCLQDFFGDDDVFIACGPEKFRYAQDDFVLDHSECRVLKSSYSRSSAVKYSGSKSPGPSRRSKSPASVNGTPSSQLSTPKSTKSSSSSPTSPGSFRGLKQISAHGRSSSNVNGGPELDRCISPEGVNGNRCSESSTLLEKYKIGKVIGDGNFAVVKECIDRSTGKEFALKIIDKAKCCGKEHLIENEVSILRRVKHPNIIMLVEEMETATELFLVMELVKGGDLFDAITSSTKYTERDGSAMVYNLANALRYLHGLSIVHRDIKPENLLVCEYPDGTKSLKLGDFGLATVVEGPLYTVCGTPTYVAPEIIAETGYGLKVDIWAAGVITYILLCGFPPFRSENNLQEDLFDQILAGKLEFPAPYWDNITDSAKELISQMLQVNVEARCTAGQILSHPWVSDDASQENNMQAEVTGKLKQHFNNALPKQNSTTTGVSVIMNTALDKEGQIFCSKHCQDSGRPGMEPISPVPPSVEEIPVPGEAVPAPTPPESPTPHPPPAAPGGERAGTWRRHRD

[2] = molecular target: Tyrosine-protein kinase BTK (Homo sapiens, UniProt Q06187); conditions: at 10 µM
[3] = molecular target: T2, Tyrosine-protein kinase Tec (Homo sapiens) (UniProt P42680); experiment: Selectivity interaction (ActivX KiNativ screen (kinase selectivity in THP-1 cell lysates)) EUB0000639a TEC; assay type: subcellular; conditions: lysate
T2 sequence (whole entry): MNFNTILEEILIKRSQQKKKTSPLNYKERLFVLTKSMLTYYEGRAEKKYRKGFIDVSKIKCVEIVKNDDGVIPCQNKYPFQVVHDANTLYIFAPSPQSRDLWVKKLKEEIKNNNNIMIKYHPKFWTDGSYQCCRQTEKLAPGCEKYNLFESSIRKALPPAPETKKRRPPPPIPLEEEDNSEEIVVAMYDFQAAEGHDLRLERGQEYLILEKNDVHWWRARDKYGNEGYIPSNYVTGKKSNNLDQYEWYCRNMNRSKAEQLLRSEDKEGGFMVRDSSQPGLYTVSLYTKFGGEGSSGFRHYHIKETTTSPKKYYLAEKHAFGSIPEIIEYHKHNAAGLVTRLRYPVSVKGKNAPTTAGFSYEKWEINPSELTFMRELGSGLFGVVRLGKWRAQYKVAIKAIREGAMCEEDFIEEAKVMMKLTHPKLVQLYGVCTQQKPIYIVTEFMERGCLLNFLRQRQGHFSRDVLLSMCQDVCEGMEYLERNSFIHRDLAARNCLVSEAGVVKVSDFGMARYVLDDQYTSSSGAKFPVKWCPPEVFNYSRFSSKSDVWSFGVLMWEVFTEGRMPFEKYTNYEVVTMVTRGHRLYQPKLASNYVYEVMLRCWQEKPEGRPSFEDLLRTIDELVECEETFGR

[4] = molecular target: Serine/threonine-protein kinase MARK2 (Homo sapiens) (UniProt Q7KZI7); experiment: Selectivity interaction (ActivX KiNativ screen (kinase selectivity in THP-1 cell lysates)) EUB0000639a MARK2; assay type: subcellular; conditions: lysate, at 5 µM
[5] = molecular target: T3, Inhibitor of nuclear factor kappa-B kinase subunit epsilon (Homo sapiens) (UniProt Q14164); experiment: Selectivity interaction (ActivX KiNativ screen (kinase selectivity in THP-1 cell lysates)) EUB0000639a IKBKE; assay type: subcellular; conditions: lysate, at 0.04 µM
T3 sequence (whole entry): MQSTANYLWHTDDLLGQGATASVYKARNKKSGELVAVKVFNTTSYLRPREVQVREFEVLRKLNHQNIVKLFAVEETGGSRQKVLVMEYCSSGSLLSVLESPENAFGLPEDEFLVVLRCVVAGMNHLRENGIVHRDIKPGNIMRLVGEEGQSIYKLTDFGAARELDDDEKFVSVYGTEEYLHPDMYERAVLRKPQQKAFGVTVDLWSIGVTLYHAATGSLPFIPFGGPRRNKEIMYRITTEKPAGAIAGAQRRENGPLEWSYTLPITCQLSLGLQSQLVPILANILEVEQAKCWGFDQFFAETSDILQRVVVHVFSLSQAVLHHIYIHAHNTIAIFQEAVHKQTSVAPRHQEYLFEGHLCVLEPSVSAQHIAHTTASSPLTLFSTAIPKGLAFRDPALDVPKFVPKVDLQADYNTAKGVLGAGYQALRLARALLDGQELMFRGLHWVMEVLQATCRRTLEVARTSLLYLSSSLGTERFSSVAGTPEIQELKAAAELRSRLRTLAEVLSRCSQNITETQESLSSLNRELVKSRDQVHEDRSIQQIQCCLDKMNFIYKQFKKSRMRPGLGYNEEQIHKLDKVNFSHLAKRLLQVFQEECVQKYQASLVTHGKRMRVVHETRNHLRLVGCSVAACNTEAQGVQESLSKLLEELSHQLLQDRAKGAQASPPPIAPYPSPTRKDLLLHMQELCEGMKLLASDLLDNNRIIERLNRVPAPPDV

[6] = molecular target: SRSF protein kinase 3 (Homo sapiens) (UniProt Q9UPE1); experiment: Selectivity interaction (KinomeScan (DiscoverX)) EUB0001049a SRPK3; conditions: at 1 µM
[7] = molecular target: T4, Serine/threonine-protein kinase STK11 (Homo sapiens) (UniProt Q15831); conditions: at 10 µM
T4 sequence (whole entry): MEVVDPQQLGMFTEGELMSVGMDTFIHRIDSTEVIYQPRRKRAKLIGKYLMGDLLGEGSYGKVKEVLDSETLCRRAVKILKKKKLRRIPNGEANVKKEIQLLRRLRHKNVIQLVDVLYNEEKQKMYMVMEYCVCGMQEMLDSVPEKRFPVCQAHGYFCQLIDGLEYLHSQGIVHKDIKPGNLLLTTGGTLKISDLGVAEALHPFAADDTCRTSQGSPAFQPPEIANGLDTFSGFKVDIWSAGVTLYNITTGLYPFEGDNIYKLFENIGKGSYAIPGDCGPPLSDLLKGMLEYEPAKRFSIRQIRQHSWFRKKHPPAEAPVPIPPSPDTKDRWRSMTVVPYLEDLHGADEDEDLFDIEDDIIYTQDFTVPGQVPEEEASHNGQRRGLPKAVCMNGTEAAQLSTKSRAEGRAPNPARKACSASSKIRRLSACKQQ

Sequence of SRSF protein kinase 3 (Homo sapiens) (Q9UPE1 whole entry): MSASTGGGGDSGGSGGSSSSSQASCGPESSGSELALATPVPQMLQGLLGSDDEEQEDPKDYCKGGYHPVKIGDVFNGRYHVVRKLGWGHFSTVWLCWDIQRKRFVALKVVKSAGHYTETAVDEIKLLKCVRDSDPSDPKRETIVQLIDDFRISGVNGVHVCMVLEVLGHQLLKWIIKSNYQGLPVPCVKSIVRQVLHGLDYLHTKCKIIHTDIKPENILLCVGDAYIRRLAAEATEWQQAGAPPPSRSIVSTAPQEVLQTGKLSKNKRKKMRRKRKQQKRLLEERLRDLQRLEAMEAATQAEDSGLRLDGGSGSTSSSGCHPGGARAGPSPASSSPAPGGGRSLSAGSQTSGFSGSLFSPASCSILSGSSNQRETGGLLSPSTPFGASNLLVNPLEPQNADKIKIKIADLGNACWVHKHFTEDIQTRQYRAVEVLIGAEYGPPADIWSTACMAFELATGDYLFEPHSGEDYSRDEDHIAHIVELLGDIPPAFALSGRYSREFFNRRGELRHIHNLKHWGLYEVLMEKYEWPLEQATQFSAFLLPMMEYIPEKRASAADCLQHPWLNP
Sequence of Serine/threonine-protein kinase MARK2 (Homo sapiens) (Q7KZI7 whole entry): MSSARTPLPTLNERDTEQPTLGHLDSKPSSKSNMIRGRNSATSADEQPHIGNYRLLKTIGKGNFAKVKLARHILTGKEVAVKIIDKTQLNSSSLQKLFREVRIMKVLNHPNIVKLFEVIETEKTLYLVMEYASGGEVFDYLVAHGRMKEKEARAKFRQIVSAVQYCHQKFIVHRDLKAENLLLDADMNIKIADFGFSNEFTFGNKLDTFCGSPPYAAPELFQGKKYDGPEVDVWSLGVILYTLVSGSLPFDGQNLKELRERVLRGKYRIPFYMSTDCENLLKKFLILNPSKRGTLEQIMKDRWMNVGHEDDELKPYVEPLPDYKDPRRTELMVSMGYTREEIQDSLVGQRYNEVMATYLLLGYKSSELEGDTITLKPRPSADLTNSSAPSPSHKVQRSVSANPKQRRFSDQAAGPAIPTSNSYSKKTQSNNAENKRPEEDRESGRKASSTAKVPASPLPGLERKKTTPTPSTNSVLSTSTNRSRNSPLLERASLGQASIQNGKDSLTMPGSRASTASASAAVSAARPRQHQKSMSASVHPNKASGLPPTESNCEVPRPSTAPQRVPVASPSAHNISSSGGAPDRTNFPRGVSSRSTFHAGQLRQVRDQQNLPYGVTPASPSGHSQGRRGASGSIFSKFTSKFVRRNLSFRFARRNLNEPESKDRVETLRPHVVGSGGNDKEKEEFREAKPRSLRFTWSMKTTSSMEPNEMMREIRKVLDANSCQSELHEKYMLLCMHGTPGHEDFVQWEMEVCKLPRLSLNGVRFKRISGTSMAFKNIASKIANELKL
Sequence of Tyrosine-protein kinase BTK (Q06187 whole entry): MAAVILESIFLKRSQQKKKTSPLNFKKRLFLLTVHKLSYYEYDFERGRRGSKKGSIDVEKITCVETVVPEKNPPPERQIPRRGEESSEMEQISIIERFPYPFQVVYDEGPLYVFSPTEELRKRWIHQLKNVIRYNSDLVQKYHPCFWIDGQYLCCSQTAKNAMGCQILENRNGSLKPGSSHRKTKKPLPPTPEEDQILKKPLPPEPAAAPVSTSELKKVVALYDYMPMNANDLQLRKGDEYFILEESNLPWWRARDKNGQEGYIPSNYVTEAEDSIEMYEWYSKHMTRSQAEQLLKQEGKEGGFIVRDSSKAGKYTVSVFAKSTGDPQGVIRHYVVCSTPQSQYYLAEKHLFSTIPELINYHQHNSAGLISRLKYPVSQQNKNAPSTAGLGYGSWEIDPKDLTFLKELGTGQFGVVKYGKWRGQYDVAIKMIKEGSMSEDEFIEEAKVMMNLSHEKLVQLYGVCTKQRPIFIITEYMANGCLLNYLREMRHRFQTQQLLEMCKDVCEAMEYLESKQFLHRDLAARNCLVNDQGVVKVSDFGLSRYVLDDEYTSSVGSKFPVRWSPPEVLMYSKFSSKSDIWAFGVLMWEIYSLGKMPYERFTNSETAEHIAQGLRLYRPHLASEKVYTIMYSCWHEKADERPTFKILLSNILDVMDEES

For `Cc1ccc(-c2ccc3c(ccc4sc5c(c43)NC[C@@H](C)NC5=O)n2)cn1`, the % of inhibition [1] was -1%.

Compound `CCN(CC)CCCCNc1ncc2cc(-c3cc(OC)cc(OC)c3)c(NC(=O)NC(C)(C)C)nc2n1` has a % of control [2] of 100%.

For `CC[C@@H]1[C@H](F)C(=O)N[C@@H]1COc1nccc2cc(C(N)=O)c(OC)cc12` [ZIMLOVISERTIB], the % of inhibition ([3]; at 0.01 µM) was 6%, the % of inhibition ([3]; at 0.04 µM) was 0% and the % of inhibition ([3]; at 0.2 µM) was -2.1%. For the same compound, the % of inhibition ([3]; at 1 µM) was -3.6%, the % of inhibition ([3]; at 5 µM) was -0.9% and the % of inhibition [4] was 45.6%. The % of inhibition [5] was -22.2%.

Work on `COc1cc(Nc2nc(C)cc(-c3cnn4nc(OC)ccc34)n2)cc(C(F)(F)F)c1` yielded a % of control [6] of 65%.

`Cc1cc([C@@H](C)Nc2ccccc2C(=O)O)c2nc(N3CCOCC3)cc(=O)n2c1` [AZD-6482] gave a % of control [7] of 98%.
